Key:
XIAP BIR3 = target: T1, XIAP BIR3 (Homo sapiens, UniProt P98170); test: XIAP BIR3 binding assay (DELFIA), displacement of SMAC peptide; conditions: GST-fusion BIR3 domain (aa 241 to 356) 10 nM, SMAC peptide 10 nM; activity of the (S)-isomers
T1 construct: covering amino acids 241 to 356; XIAP BIR3; made in house; host or cells: E. coli
In short: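 Each BIR3 domain (10 nM) incubated with biotinylated N-terminal SMAC peptide (10 nM) and compound for 1 h at room temp in Tris/NaCl buffer with BSA, DTT and Triton X-100. Captured on streptavidin plates; bound BIR3 detected by Eu-labelled anti-GST time-resolved fluorescence, giving IC50 values.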

cIAP1 BIR3 = target: T2, cIAP1 BIR3 (Homo sapiens, UniProt Q13490); test: cIAP1 BIR3 binding assay (DELFIA), displacement of SMAC peptide; conditions: GST-fusion BIR3 domain (aa 256 to 363) 10 nM, SMAC peptide 10 nM; activity of the (S)-isomers
T2 construct: covering amino acids 256 to 363; cIAP1 BIR3; made in house; host or cells: E. coli
Procedure: Biological Methods XIAP BIR3 and cIAP1 BIR3 Binding Assays (DELFIA)
Peptide […]-Lys(Biotin), representing the N-terminus of mature human SMAC (SMAC peptide), was used as interaction partner in the protein-peptide interaction assay.
BIR3 domains (10 nM) were incubated with SMAC peptide (10 nM) in Assay Buffer (50 mM Tris, 120 mM NaCl, 0.1% BSA, 1 mM DTT, 0.05% TritonX100) for one hour at room temperature in the presence of inhibitiory compounds. The assay mixture was transferred to a strepatvidin coated plate and incubated for one hour at room temperature to allow binding of the biotinylated peptide and associated BIR3 domains to the plate. After several washing steps Eu labeled anti-GST antibody (e.g. Perkin Elmer DELFIA Eu-N1-antiGST AD0250) was added to detect BIR3 domain-SMAC peptide interactions according to Perkin Elmer's instructions. […] Time resolved Europium fluoresecence was measured in a Wallac Victor using Standard assay settings.
DELFIA assay results were plotted against compound concentrations and Software GraphPad Prizm was used to calculate half maximal inhibitory concentrations (IC50 values).

T1 sequence (P98170 241-356): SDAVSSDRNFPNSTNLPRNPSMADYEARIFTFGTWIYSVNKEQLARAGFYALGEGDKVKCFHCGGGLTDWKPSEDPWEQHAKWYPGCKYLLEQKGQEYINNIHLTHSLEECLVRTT
T2 sequence (Q13490 256-363): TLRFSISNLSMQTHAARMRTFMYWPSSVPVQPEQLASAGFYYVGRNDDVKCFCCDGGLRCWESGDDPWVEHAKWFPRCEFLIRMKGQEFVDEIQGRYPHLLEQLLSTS

SMILES	IC50 (XIAP BIR3) [nM]	IC50 (cIAP1 BIR3) [nM]
CNC(C)C(=O)Nc1ccc(-c2c(C)nc3ccccn23)c(C#Cc2cnc3ccccn23)n1 (stereo not shown) [Example 60, N-[6-(2-imidazo[1,2-a]pyridin-3-ylethynyl)-5-(2-methyl-imidazo[1,2-a]pyridin-3-yl)-pyridin-2-yl]-2-(methylamino)-propanamide]	184	2
CNC(C)C(=O)Nc1ccc(-c2ccc(N3CCCC3)nc2)c(C#Cc2ccccc2)n1 (stereo not shown) [Example 129, 2-(methylamino)-N-[6-(2-phenyl-ethynyl)-5-(6-pyrrolidin-1-ylpyridin-3-yl)pyridin-2-yl]-propanamide]	436	98
CNC(C)C(=O)Nc1ccc(-c2c(C)ncnc2C)c(C#Cc2ccc3cnccc3c2)n1 (stereo not shown) [Example 45, N-[5-(4,6-dimethylpyrimidin-5-yl)-6-(2-isoquinolin-6-yl-ethynyl)pyridin-2-yl]-2-(methyl-amino)propanamide]	431	2
CNC(C)C(=O)Nc1ccc(-c2ccc(C)nc2)c(C#Cc2ccccc2)n1 (stereo not shown) [Example 147, 2-(methylamino)-N-[5-(6-methylpyridin-3-yl)-6-(2-phenyl-ethynyl)pyridin-2-yl]propanamide]	125	32
CNC(C)C(=O)Nc1ccc(-c2cncc(C(=O)OC)c2)c(C#Cc2cccc(C)c2)n1 (stereo not shown) [Example 13, methyl 5-[6-[[2-(methyl-amino)propanoyl]amino]-2-[2-(3-methylphenyl)ethynyl]-pyridin-3-yl]pyridine-3-carboxylate]	96	12
CNC(C)C(=O)Nc1ccc(-c2cscc2C#N)c(C#Cc2ccccc2)n1 (stereo not shown) [Example 145, N-[5-(4-cyanothiophen-3-yl)-6-(2-phenylethynyl)pyridin-2-yl]-2-(methylamino)propanamide]	317	94
CNC(C)C(=O)Nc1ccc(-c2c(C)nc3cc(Cl)ccn23)c(C#Cc2ccc3ncccc3c2)n1 (stereo not shown) [Example 46, N-[5-(7-chloro-2-methyl-imidazo[1,2-a]pyridin-3-yl)-6-(2-quinolin-6-ylethynyl)pyridin-2-yl]-2-(methylamino)propan-amide]	145	1
CNC(C)C(=O)Nc1ccc(-c2cnc(N3CCN(C)CC3)nc2)c(C#Cc2ccccc2)n1 (stereo not shown) [Example 191, 2-(methylamino)-N-[5-[2-(4-methylpiperazin-1-yl)pyrimidin-5-yl]-6-(2-phenylethynyl)pyridin-2-yl]propanamide]	102	22
CC(N)C(=O)Nc1cc2ccccc2c(C#Cc2cscn2)n1 (stereo not shown) [Example 226, 2-amino-N-[1-[2-(1,3-thiazol-4-yl)ethynyl]isoquinolin-3-yl]propanamide]	1200	332
CC(N)C(=O)Nc1cc2ccccc2c(C#Cc2cccs2)n1 (stereo not shown) [Example 208, 2-amino-N-[1-(2-thiophen-2-ylethynyl)isoquinolin-3-yl]-propanamide]	467	255
CNC(C)C(=O)Nc1ccc(-c2cnn3ccccc23)c(C#Cc2ccccc2)n1 (stereo not shown) [Example 138, 2-(methylamino)-N-[6-(2-phenyl-ethynyl)-5-pyrazolo[1,5-a]-pyridin-3-ylpyridin-2-yl]propan-amide]	55	12
CC(N)C(=O)Nc1cccc(C#Cc2ccoc2)n1 (stereo not shown) [Example 240, 2-amino-N-[6-[2-(furan-3-yl)ethynyl]pyridin-2-yl]propanamide]	3020	1340
CNC(C)C(=O)Nc1ccc(-c2cncc(-c3ccccc3)c2)c(C#Cc2ccccc2)n1 (stereo not shown) [Example 149, 2-(methylamino)-N-[6-(2-phenyl-ethynyl)-5-(5-phenylpyridin-3-yl)pyridin-2-yl]propanamide]	195	80

Now from value to compound:

IC50 (XIAP BIR3) [nM]	IC50 (cIAP1 BIR3) [nM]	SMILES
136	1	CNC(C)C(=O)Nc1ccc(-c2c(C)nc3ccccn23)c(C#Cc2ccc(-c3cnco3)cc2)n1 (stereo not shown) [Example 44, 2-(methylamino)-N-[5-(2-methylimidazo[1,2-a]pyridin-3-yl)-6-[2-[4-(1,3-oxazol-5-yl)-phenyl]ethynyl]pyridin-2-yl]-propanamide]
228	1	CNC(C)C(=O)Nc1ccc(-c2c(C)nc3ccccn23)c(C#Cc2ccc3c(c2)CN(C)C3=O)n1 (stereo not shown) [Example 31, 2-(methylamino)-N-[5-(2-methylimidazo[1,2-a]pyridin-3-yl)-6-[2-(2-methyl-1-oxo-3H-isoindol-5-yl)ethynyl]pyridin-2-yl]propanamide]
70	1	CNC(C)C(=O)Nc1ccc(-c2c(C)nc3ccccn23)c(C#Cc2ccc(C(N)=O)cc2)n1 (stereo not shown) [Example 63, 4-[2-[6-[[2-(methylamino)-propanoyl]amino]-3-(2-methyl-imidazo[1,2-a]pyridin-3-yl)-pyridin-2-yl]ethynyl]benzamide]
110	2	CNC(C)C(=O)Nc1ccc(-c2c(C)nc3ccccn23)c(C#Cc2ccc3c(c2)CCO3)n1 (stereo not shown) [Example 69, N-[6-[2-(2,3-dihydro-1-benzofuran-5-yl)ethynyl]-5-(2-methylimidazo[1,2-a]pyridin-3-yl)pyridin-2-yl]-2-(methyl-amino)propanamide]
198	1	CNC(C)C(=O)Nc1ccc(-c2c(C)nc3ccccn23)c(C#Cc2ccnc3c(F)cccc23)n1 (stereo not shown) [Example 93, N-[6-[2-(8-fluoroquinolin-4-yl)-ethynyl]-5-(2-methyl-imidazo[1,2-a]pyridin-3-yl)-pyridin-2-yl]-2-(methylamino)-propanamide]
417	1	CNC(C)C(=O)Nc1ccc(-c2c(C)nc3ccccn23)c(C#Cc2ccc3nc(C)ccc3c2)n1 (stereo not shown) [Example 30, 2-(methylamino)-N-[5-(2-methylimidazo[1,2-a]pyridin-3-yl)-6-[2-(2-methylquinolin-6-yl)ethynyl]pyridin-2-yl]propan-amide]
207	1	CNC(C)C(=O)Nc1ccc(-c2c(C)nc3ccccn23)c(C#Cc2ccc(-n3ccnc3)cc2)n1 (stereo not shown) [Example 88, N-[6-[2-(4-imidazol-1-ylphenyl)ethynyl]-5-(2-methyl-imidazo[1,2-a]pyridin-3-yl)-pyridin-2-yl]-2-(methylamino)-propanamide]
175	1	CNC(C)C(=O)Nc1ccc(-c2c(C)nc3ccccn23)c(C#Cc2ccc3oc(=O)n(C)c3c2)n1 (stereo not shown) [Example 74, 2-(methylamino)-N-[5-(2-methylimidazo[1,2-a]pyridin-3-yl)-6-[2-(3-methyl-2-oxo-1,3-benzoxazol-5-yl)ethynyl]-pyridin-2-yl]propanamide]
95	1	CNC(C)C(=O)Nc1ccc(-c2c(C)nc3ccccn23)c(C#Cc2cc3ccncc3s2)n1 (stereo not shown) [Example 50, 2-(methylamino)-N-[5-(2-methylimidazo[1,2-a]pyridin-3-yl)-6-(2-thieno[2,3-c]pyridin-2-ylethynyl)pyridin-2-yl]propan-amide]
212	1	CNC(C)C(=O)Nc1ccc(-c2c(C)nc3ccccn23)c(C#Cc2ccc3nccn3c2)n1 (stereo not shown) [Example 48, N-[6-(2-imidazo[1,2-a]pyridin-6-ylethynyl)-5-(2-methyl-imidazo[1,2-a]pyridin-3-yl)-pyridin-2-yl]-2-(methylamino)-propanamide]
